According to PMC7343746, “(2S, 4R)-4-[^18F]Fluoroglutamine for In vivo PET Imaging of Glioma Xenografts in Mice: an Evaluation of Multiple Pharmacokinetic Models” (Molecular Imaging and Biology, 2020):

What was measured:
rat BT4C glioma cells [1] = experiment: In vivo PET imaging of subcutaneous glioma xenografts; design: species or system Foxn1^nu/nu mouse; conditions: for Tumor-to-background muscle ratio: at uptake plateau around 12.5 min
Excerpt: The subcutaneous tumor model was created by injecting rat BT4C glioma cells subcutaneously into the hind leg and neck region of six athymic nude (Foxn1^nu/nu, Envigo, Gannant, France) mice at 7 weeks old. Tumor growth was visually tracked and subjects PET imaged after 5 weeks. See Electronic Supplemental Materials (ESM) for detailed animal models.
One to two mice were imaged at a time while under 2 % isoflurane anesthesia with an Inveon multimodality small animal PET/CT scanner (Siemens Medical Solutions, Munich, Germany) commencing with an attenuation CT scan to correct the PET scan data. Ten to twelve megabequerels of the tracer was injected into the tail vein, and the subject(s) were imaged over a 60-min period in list mode dividing framing into 6 × 10 s, 4 × 60 s, 5 × 300 s, 3 × 600 s. Obtained sinograms were reconstructed using the ordered-subset expectation maximization 2-dimensional algorithm to obtain the final PET images and back-corrected for radionuclide decay.
(§1) Image analysis was performed using CARIMAS software published and freely distributed by the Turku PET Center (http://turkupetcentre.fi/carimas/). CT scans were used as rough anatomical reference while tumor regions of interest (ROI) were hand-drawn based upon observed spikes of radioactivity in the PET images at locations correlating with recorded tumor grafts. Control muscle ROIs were drawn on the side opposite to the tumor in the leg flank muscle (based on CT) while the blood ROI was drawn based upon heart anatomical location and observed PET image radioactivity spike during the initial 20 s of imaging in the left ventricle. Standardized uptake values (SUV) were calculated with respect to ROI volume, mean and max tumor radioactivity, total injected radioactivity dose (corrected for tail, cannula, and syringe residual radioactivity), and animal weight, and were additionally presented as tumor-to-background ratio (TBR, tumor-to-healthy brain region for intracranial gliomas and tumor-to-muscle for subcutaneous gliomas) as defined by recent glioma research literature standards. Mean and maximum TBR values were reported as ROI radioactivity per volume divided by mean background radioactivity per volume. The blood radioactivity SUV and gender-specific metabolite-corrected blood radioactivity SUV were then applied to multiple pharmacokinetic models to characterize the flux of the tracer (further described in the “Modeling” section).

[2] = In vivo stability analysis, plasma precipitation assay; design: species or system C57BL/6J and Foxn1^nu/nu mice; conditions: after 60 min
Procedure: Tracer in vivo stability studies were performed with 12 mice consisting of two groups; 6 1-year-old male C57BL/6J and 6 3-month-old female Foxn1^nu/nu mice.
Twelve non-tumor-bearing control mice (6 C57BL/6J and 6 Foxn1^nu/nu) were injected with 9–14 MBq of tracer before a 200-μL blood sample was drawn into a heparinized vial and kept on ice. After 15 min, a second sample was collected during animal sacrifice. Whole blood was weighed and measured for radioactivity before being centrifuged at 730×g and 5 °C for 5 min, separated into plasma and blood cell fractions, and then separately weighed and measured. The values were used along with age, gender, and animal model-specific hematocrit values (reported by suppliers) to calculate the plasma radioactivity fraction of the whole-blood radioactivity (Eq. 1):1 Plasma Activity Fraction=Cp/CRBC+Cp=ρpCpHCT/ρbCb−ρpCp1−HCT+ρpCpHCT where C = radioactivity concentration, ρ = density, and HCT = hematocrit. […]
Aliquots of plasma were precipitated with 2.5 × (volume) methanol, vortexed, and centrifuged at 11,000×g for 5 min. The pellet and supernatant fractions were separated and measured for radioactivity to give the radioactivity fraction of the plasma that was trapped or bound to proteins (Eq. 2):2 Unbound plasma fraction=Csup/Cpel+Csup where C = radioactivity of subscripts which denote the following: sup = supernatant and pel = pellet. […]

rat BT4C glioma cells [3] = experiment: 2-Compartment model, subcutaneous model; type: in vivo, Foxn1^nu/nu mouse
Procedure: as §1
Using the heart’s left ventricle ROI from the PET data as an uncorrected radioactivity level input and the bioavailable parent-tracer fraction (results: Eqs. 3 and 4 applied to the uncorrected input) as the corrected input, multiple models were investigated to characterize the tissue uptake dynamics. Two-compartment modeling and Logan, Patlak, and Yokoi plots were used to separately model the pharmacokinetics for the gliomas (both subcutaneous and orthotopic loci) and their respective control tissues (healthy muscle and healthy brain, respectively). Where indicated, means plus/minus standard deviations are reported. Difference in parameters for uncorrected versus correct and target tissue versus their respective control regions were tested with students’ paired t tests with P values lower than 0.05 being considered significant.

[4] = Bone (femoral condyle) average (n = 6), arterial blood input
[5] = Bone (femoral condyle) average (n=6), plasma-corrected input
[6] = Flank muscle average (n = 6), arterial blood input
[7] = Flank muscle average (n=6), plasma-corrected input
[8] = Flank tumor average (n = 6), arterial blood input
[9] = Flank tumor average (n=6), plasma-corrected input
[10] = Neck tumor average (n = 6), arterial blood input
[11] = Neck tumor average (n=6), plasma-corrected input

Tumor-to-background muscle ratio (rat BT4C glioma cells [1]; flank locus): 2.0 ± 0.8
Tumor-to-background muscle ratio (rat BT4C glioma cells [1]; neck locus): 1.8 ± 0.6
PET tumor-to-muscle (flank) ratio (rat BT4C glioma cells [1]; subcutaneous BT4C gliomas, n = 12): 1.9 ± 0.7
Time at which tracer uptake plateaued (rat BT4C glioma cells [1]; subcutaneous BT4C tumors): around 12.5 min
Plasma radioactivity bound to or incorporated into proteins [2]: roughly 25%
2-Compartment K1 (rat BT4C glioma cells [3]; [4]): 0.309 ± 0.179 mL min-1 mL-1
2-Compartment K1/k2 (rat BT4C glioma cells [3]; [4]): 0.745 ± 0.194 mL mL-1
2-Compartment Vb (rat BT4C glioma cells [3]; [4]): 5.45 ± 2.53%
2-Compartment k3 (rat BT4C glioma cells [3]; [4]): 0.075 ± 0.034 min⁻¹
2-Compartment k3*K1/k2 (rat BT4C glioma cells [3]; [4]): 0.052 ± 0.017
2-Compartment k3/(k2+k3) (rat BT4C glioma cells [3]; [4]): 0.171 ± 0.083
2-Compartment K1 (rat BT4C glioma cells [3]; [5]): 0.402 ± 0.206 mL min-1 mL-1
2-Compartment K1/k2 (rat BT4C glioma cells [3]; [5]): 0.649 ± 0.191 mL mL-1
2-Compartment Vb (rat BT4C glioma cells [3]; [5]): 3.21 ± 3.57%
2-Compartment k3 (rat BT4C glioma cells [3]; [5]): 0.148 ± 0.063 min⁻¹
2-Compartment k3*K1/k2 (rat BT4C glioma cells [3]; [5]): 0.086 ± 0.024
2-Compartment k3/(k2+k3) (rat BT4C glioma cells [3]; [5]): 0.198 ± 0.079
2-Compartment K1 (rat BT4C glioma cells [3]; [6]): 0.079 ± 0.027 mL min-1 mL-1
2-Compartment K1/k2 (rat BT4C glioma cells [3]; [6]): 0.564 ± 0.130 mL mL-1
2-Compartment Vb (rat BT4C glioma cells [3]; [6]): 2.33 ± 1.07%
2-Compartment k3 (rat BT4C glioma cells [3]; [6]): 0.009 ± 0.005 min⁻¹
2-Compartment k3*K1/k2 (rat BT4C glioma cells [3]; [6]): 0.005 ± 0.002
2-Compartment k3/(k2+k3) (rat BT4C glioma cells [3]; [6]): 0.061 ± 0.038
2-Compartment K1 (rat BT4C glioma cells [3]; [7]): 0.081 ± 0.027 mL min-1 mL-1
2-Compartment K1/k2 (rat BT4C glioma cells [3]; [7]): 0.797 ± 0.163 mL mL-1
2-Compartment Vb (rat BT4C glioma cells [3]; [7]): 2.8 ± 1.12%
2-Compartment k3 (rat BT4C glioma cells [3]; [7]): 0.015 ± 0.005 min⁻¹
2-Compartment k3*K1/k2 (rat BT4C glioma cells [3]; [7]): 0.012 ± 0.003
2-Compartment k3/(k2+k3) (rat BT4C glioma cells [3]; [7]): 0.136 ± 0.055
2-Compartment K1 (rat BT4C glioma cells [3]; [8]): 0.147 ± 0.028 mL min-1 mL-1
2-Compartment K1/k2 (rat BT4C glioma cells [3]; [8]): 0.973 ± 0.187 mL mL-1
2-Compartment Vb (rat BT4C glioma cells [3]; [8]): 5.59 ± 2.78%
2-Compartment k3 (rat BT4C glioma cells [3]; [8]): 0.005 ± 0.004 min⁻¹
2-Compartment k3*K1/k2 (rat BT4C glioma cells [3]; [8]): 0.004 ± 0.003
2-Compartment k3/(k2+k3) (rat BT4C glioma cells [3]; [8]): 0.028 ± 0.021
2-Compartment K1 (rat BT4C glioma cells [3]; [9]): 0.148 ± 0.027 mL min-1 mL-1
2-Compartment K1/k2 (rat BT4C glioma cells [3]; [9]): 1.369 ± 0.273 mL mL-1
2-Compartment Vb (rat BT4C glioma cells [3]; [9]): 6.64 ± 3.1%
2-Compartment k3 (rat BT4C glioma cells [3]; [9]): 0.010 ± 0.004 min⁻¹
2-Compartment k3*K1/k2 (rat BT4C glioma cells [3]; [9]): 0.013 ± 0.003
2-Compartment k3/(k2+k3) (rat BT4C glioma cells [3]; [9]): 0.086 ± 0.028
2-Compartment K1 (rat BT4C glioma cells [3]; [10]): 0.202 ± 0.079 mL min-1 mL-1
2-Compartment K1/k2 (rat BT4C glioma cells [3]; [10]): 1.129 ± 0.141 mL mL-1
2-Compartment Vb (rat BT4C glioma cells [3]; [10]): 8.28 ± 5.95%
2-Compartment k3 (rat BT4C glioma cells [3]; [10]): 0.002 ± 0.002 min⁻¹
2-Compartment k3*K1/k2 (rat BT4C glioma cells [3]; [10]): 0.002 ± 0.002
2-Compartment k3/(k2+k3) (rat BT4C glioma cells [3]; [10]): 0.015 ± 0.013
2-Compartment K1 (rat BT4C glioma cells [3]; [11]): 0.202 ± 0.072 mL min-1 mL-1
2-Compartment K1/k2 (rat BT4C glioma cells [3]; [11]): 1.567 ± 0.209 mL mL-1
2-Compartment Vb (rat BT4C glioma cells [3]; [11]): 9.79 ± 6.85%
2-Compartment k3 (rat BT4C glioma cells [3]; [11]): 0.008 ± 0.002 min⁻¹
2-Compartment k3*K1/k2 (rat BT4C glioma cells [3]; [11]): 0.013 ± 0.002
2-Compartment k3/(k2+k3) (rat BT4C glioma cells [3]; [11]): 0.065 ± 0.026
SMILES: NC(=O)[C@H]([18F])C[C@H](N)C(=O)O [[^18F]FGln, (2S, 4R)-4-[^18F]fluoroglutamine]
